How the values were obtained:
[1] = xn = mol fraction of the nth substance listed; settings: 81.5 kPa, Liquid, Vibrating tube method
[2] = refractive index (Na D-line) (dimensionless); xn = mol fraction of the nth substance listed; settings: 81.5 kPa, Liquid, Standard Abbe refractometry

CNC1CCCCC1 [N-methylcyclohexylamine] + CC(C)O
Settings	mass density, 298.15 K [kg/m3]	mass density, 308.15 K [kg/m3]	mass density, 318.15 K [kg/m3]	mass density, 328.15 K [kg/m3]	refractive index, 298.15 K	refractive index, 308.15 K	refractive index, 318.15 K	refractive index, 328.15 K
[1], x2 = 0	865.2	856.57	847.67	838.68	–	–	–	–
[1], x2 = 0.159	860.12	851.49	842.65	833.57	–	–	–	–
[1], x2 = 0.2745	855.75	847.1	838.18	828.82	–	–	–	–
[1], x2 = 0.3856	850.26	841.55	832.63	823.19	–	–	–	–
[1], x2 = 0.4867	843.79	835.1	826.14	816.62	–	–	–	–
[1], x2 = 0.5738	836.95	828.24	819.27	809.59	–	–	–	–
[1], x2 = 0.6539	829.55	820.8	811.84	802	–	–	–	–
[1], x2 = 0.7253	822.01	813.27	804.23	794.36	–	–	–	–
[1], x2 = 0.7904	814.28	805.54	796.65	786.58	–	–	–	–
[1], x2 = 0.85	806.34	797.64	788.79	778.81	–	–	–	–
[1], x2 = 0.904	798.29	789.69	780.82	770.72	–	–	–	–
[1], x2 = 0.9541	789.83	781.27	772.4	762.26	–	–	–	–
[2], x2 = 0	–	–	–	–	1.45306	1.44812	1.4431	1.43809
[2], x2 = 0.159	–	–	–	–	1.4471	1.44293	1.43862	1.43418
[2], x2 = 0.2745	–	–	–	–	1.44224	1.43814	1.43386	1.42939
[2], x2 = 0.3856	–	–	–	–	1.43655	1.43263	1.42854	1.4242
[2], x2 = 0.4867	–	–	–	–	1.43021	1.42642	1.42248	1.41824
[2], x2 = 0.5738	–	–	–	–	1.42372	1.41996	1.41606	1.41185
[2], x2 = 0.6539	–	–	–	–	1.41688	1.41311	1.4092	1.40495
[2], x2 = 0.7253	–	–	–	–	1.41003	1.40629	1.40239	1.39812
[2], x2 = 0.7904	–	–	–	–	1.40314	1.39948	1.39565	1.39141
[2], x2 = 0.85	–	–	–	–	1.39619	1.39265	1.38892	1.38471
[2], x2 = 0.904	–	–	–	–	1.38928	1.38579	1.38209	1.37787
[2], x2 = 0.9541	–	–	–	–	1.38224	1.37859	1.37474	1.37035

CNC1CCCCC1 [N-methylcyclohexylamine] + CCC(C)O
Settings	mass density, 298.15 K [kg/m3]	mass density, 308.15 K [kg/m3]	mass density, 318.15 K [kg/m3]	mass density, 328.15 K [kg/m3]	refractive index, 298.15 K	refractive index, 308.15 K	refractive index, 318.15 K	refractive index, 328.15 K
[1], x2 = 0	865.2	856.57	847.67	838.68	–	–	–	–
[1], x2 = 0.1217	861.95	853.4	844.58	835.58	–	–	–	–
[1], x2 = 0.2333	858.47	849.82	840.98	831.86	–	–	–	–
[1], x2 = 0.3367	854.47	845.86	836.97	827.75	–	–	–	–
[1], x2 = 0.4323	850	841.4	832.5	823.2	–	–	–	–
[1], x2 = 0.5211	845.14	836.51	827.6	818.27	–	–	–	–
[1], x2 = 0.603	840.01	831.35	822.48	813.01	–	–	–	–
[1], x2 = 0.6803	834.52	825.88	817.02	807.46	–	–	–	–
[1], x2 = 0.7528	828.72	820.14	811.27	801.72	–	–	–	–
[1], x2 = 0.8202	822.7	814.18	805.33	795.72	–	–	–	–
[1], x2 = 0.8827	816.47	807.88	799.18	789.6	–	–	–	–
[1], x2 = 0.9426	809.83	801.25	792.58	782.94	–	–	–	–
[2], x2 = 0	–	–	–	–	1.45306	1.44812	1.4431	1.43809
[2], x2 = 0.1217	–	–	–	–	1.44931	1.44493	1.44047	1.43597
[2], x2 = 0.2333	–	–	–	–	1.44578	1.44144	1.43701	1.43258
[2], x2 = 0.3367	–	–	–	–	1.44206	1.43776	1.4334	1.42907
[2], x2 = 0.4323	–	–	–	–	1.43795	1.43374	1.42946	1.4252
[2], x2 = 0.5211	–	–	–	–	1.43338	1.42927	1.42503	1.42076
[2], x2 = 0.603	–	–	–	–	1.42849	1.42444	1.42021	1.41587
[2], x2 = 0.6803	–	–	–	–	1.42326	1.41926	1.41502	1.41065
[2], x2 = 0.7528	–	–	–	–	1.41783	1.41387	1.40967	1.40535
[2], x2 = 0.8202	–	–	–	–	1.41236	1.40841	1.40429	1.4001
[2], x2 = 0.8827	–	–	–	–	1.40689	1.40292	1.39886	1.39478
[2], x2 = 0.9426	–	–	–	–	1.40126	1.39719	1.39303	1.38886

CNC1CCCCC1 [N-methylcyclohexylamine] + CCCC(C)O
Settings	mass density, 298.15 K [kg/m3]	mass density, 308.15 K [kg/m3]	mass density, 318.15 K [kg/m3]	mass density, 328.15 K [kg/m3]	refractive index, 298.15 K	refractive index, 308.15 K	refractive index, 318.15 K	refractive index, 328.15 K
[1], x2 = 0	865.2	856.57	847.67	838.68	–	–	–	–
[1], x2 = 0.1044	861.35	852.83	844.04	835.12	–	–	–	–
[1], x2 = 0.2039	857.57	849.03	840.23	831.28	–	–	–	–
[1], x2 = 0.3	853.62	845.09	836.29	827.28	–	–	–	–
[1], x2 = 0.391	849.43	840.92	832.15	823.1	–	–	–	–
[1], x2 = 0.4776	844.86	836.35	827.59	818.52	–	–	–	–
[1], x2 = 0.5621	839.71	831.21	822.49	813.38	–	–	–	–
[1], x2 = 0.6395	834.44	825.96	817.29	808.15	–	–	–	–
[1], x2 = 0.7115	829.18	820.72	812.03	802.91	–	–	–	–
[1], x2 = 0.7926	822.85	814.43	805.84	796.73	–	–	–	–
[1], x2 = 0.8644	817.04	808.68	800.16	791.09	–	–	–	–
[1], x2 = 0.9338	811.24	802.9	794.42	785.33	–	–	–	–
[2], x2 = 0	–	–	–	–	1.45306	1.44812	1.4431	1.43809
[2], x2 = 0.1044	–	–	–	–	1.45003	1.44535	1.44061	1.4359
[2], x2 = 0.2039	–	–	–	–	1.44678	1.44217	1.43745	1.43273
[2], x2 = 0.3	–	–	–	–	1.44339	1.43884	1.43417	1.42945
[2], x2 = 0.391	–	–	–	–	1.43985	1.43539	1.43078	1.42612
[2], x2 = 0.4776	–	–	–	–	1.43608	1.43168	1.42715	1.42254
[2], x2 = 0.5621	–	–	–	–	1.43195	1.42759	1.42311	1.41857
[2], x2 = 0.6395	–	–	–	–	1.42779	1.42345	1.419	1.41449
[2], x2 = 0.7115	–	–	–	–	1.42361	1.41932	1.4149	1.41042
[2], x2 = 0.7926	–	–	–	–	1.41862	1.41442	1.41007	1.40562
[2], x2 = 0.8644	–	–	–	–	1.41398	1.40989	1.40561	1.40119
[2], x2 = 0.9338	–	–	–	–	1.40928	1.40524	1.40097	1.39653

CNC1CCCCC1 [N-methylcyclohexylamine] + CCCCC(C)O
Settings	mass density, 298.15 K [kg/m3]	mass density, 308.15 K [kg/m3]	mass density, 318.15 K [kg/m3]	mass density, 328.15 K [kg/m3]	refractive index, 298.15 K	refractive index, 308.15 K	refractive index, 318.15 K	refractive index, 328.15 K
[1], x2 = 0	865.2	856.57	847.67	838.68	–	–	–	–
[1], x2 = 0.0915	861.23	852.73	843.97	835.05	–	–	–	–
[1], x2 = 0.1814	857.43	848.96	840.23	831.33	–	–	–	–
[1], x2 = 0.2693	853.71	845.27	836.53	827.62	–	–	–	–
[1], x2 = 0.3559	849.84	841.4	832.77	823.77	–	–	–	–
[1], x2 = 0.44	845.7	837.27	828.7	819.71	–	–	–	–
[1], x2 = 0.5256	841.05	832.6	824.08	815.12	–	–	–	–
[1], x2 = 0.608	836.06	827.68	819.22	810.28	–	–	–	–
[1], x2 = 0.6858	831.06	822.74	814.31	805.47	–	–	–	–
[1], x2 = 0.7668	825.76	817.47	809.16	800.26	–	–	–	–
[1], x2 = 0.8463	820.48	812.27	804.01	795.06	–	–	–	–
[1], x2 = 0.9235	815.36	807.2	798.91	789.93	–	–	–	–
[2], x2 = 0	–	–	–	–	1.45306	1.44812	1.4431	1.43809
[2], x2 = 0.0915	–	–	–	–	1.45049	1.44581	1.44104	1.43628
[2], x2 = 0.1814	–	–	–	–	1.4477	1.44305	1.43835	1.43364
[2], x2 = 0.2693	–	–	–	–	1.445	1.44038	1.43572	1.43103
[2], x2 = 0.3559	–	–	–	–	1.44229	1.4377	1.43309	1.42844
[2], x2 = 0.44	–	–	–	–	1.43938	1.43484	1.43029	1.42569
[2], x2 = 0.5256	–	–	–	–	1.43598	1.43151	1.42702	1.42247
[2], x2 = 0.608	–	–	–	–	1.43233	1.42789	1.42346	1.41895
[2], x2 = 0.6858	–	–	–	–	1.42866	1.42425	1.41985	1.41537
[2], x2 = 0.7668	–	–	–	–	1.42478	1.42041	1.41606	1.41162
[2], x2 = 0.8463	–	–	–	–	1.42103	1.4167	1.4124	1.40799
[2], x2 = 0.9235	–	–	–	–	1.41731	1.41299	1.4087	1.40428

— the NIST ThermoML archive (doi:10.1016/j.jct.2017.02.023)
